Where two headings read alike, the source gives them in different places.
Legend:
Assay in all cases: Luciferase assay, sulfur compounds
Type in all cases: cell-based
[1] = biological target: T1, consensus OR2T29 (Homo sapiens, UniProt Q8NH02, A149V/A76M/C55S/F147L/I190K/I217V/K41M/L14S/L223S/L224F/L249M/L87M/M19V/M302T/M75V/R23S/R6W/S169T/S32C/S61T/T121A/T189M/V229I/V48I/V96I/W176R)
T1 construct: expressed in transfected cells; host or cells: HEK293
T1 sequence (Q8NH02 with tags, fused parts or gaps R6W/L14S/M19V/R23S/S32C/K41M/V48I/C55S/S61T/M75V/A76M/L87M/V96I/T121A/F147L/A149V/S169T/W176R/T189M/I190K/I217V/L223S/L224F/V229I/L249M/M302T): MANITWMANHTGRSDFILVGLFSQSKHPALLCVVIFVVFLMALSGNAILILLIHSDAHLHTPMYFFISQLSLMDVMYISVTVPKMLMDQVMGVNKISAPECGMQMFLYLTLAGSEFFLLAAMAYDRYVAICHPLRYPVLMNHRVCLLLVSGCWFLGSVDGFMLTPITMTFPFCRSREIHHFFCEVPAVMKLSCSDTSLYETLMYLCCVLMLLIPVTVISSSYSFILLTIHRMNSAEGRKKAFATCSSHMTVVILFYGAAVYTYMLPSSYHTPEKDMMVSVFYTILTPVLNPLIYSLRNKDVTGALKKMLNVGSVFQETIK
Procedure: (§1) A reaction solution as to each consensus olfactory receptor prepared in Examples described above was prepared according to the composition shown in Table 4, left standing for 20 minutes in a clean bench, and then added to each well of a 96-well plate (Becton, Dickinson and Company). The original olfactory receptor was used as to OR4S2. Composition shown in Table 20 was used as to OR11H2 and OR4E2. Subsequently, 100 μL of HEK293 cells suspended in DMEM (Nacalai Tesque, Inc.) was inoculated at 2×10^5 cells/cm^2 to each well, and cultured for 24 hours in an incubator kept at 37° C. and 5% CO2. Cells expressing no olfactory receptor (Mock) were provided as a control.
(§2) The medium was removed from the cultures prepared in 1), and 75 μL of a test substance solution (methyl mercaptan (MeSH) (CAS: 74-93-1, Tokyo Chemical Industry Co., Ltd.), dimethyl sulfide (DMS) (CAS: 75-18-3, FUJIFILM Wako Pure Chemical Corp.), dimethyl disulfide (DMDS) (CAS: 624-92-0, Tokyo Chemical Industry Co., Ltd.), concentration range: 0 μM, 1 μM, 3 μM, 10 μM, 30 μM, 100 μM, and 300 μM, or dimethyl trisulfide (DMTS) (CAS: 3658-80-8, Tokyo Chemical Industry Co., Ltd.), concentration range: 0 μM, 0.1 μM, 0.3 μM, 1 μM, 3 μM, 10 μM, and 30 μM) prepared with a fresh medium was added thereto. Under a copper ion addition condition, the test substance solution was adjusted to contain 30 μM copper(II) chloride (FUJIFILM Wako Pure Chemical Corp.) in addition to the odorant. The cells were cultured for 4 hours in a CO2 incubator and the luciferase gene was expressed sufficiently in the cells. Luciferase activity was measured using Dual-Glo™ luciferase assay system (Promega Corp.) in accordance with the operation manual of the product. A luminescence value derived from firefly luciferase induced by test substance stimulation in each well of the 96-well plate was divided by a luminescence value derived from Renilla luciferase to calculate a value (fluc/hRluc) as a signal, which was then used in analysis. The signal under each transfection condition was normalized with the signal value (fluc/hRluc) under an odorant stimulation-free condition defined as 0% and the signal value (fluc/hRluc) by stimulation with 10 μM forskolin defined as 100%, and used as a response (%) in analysis.

[2] = biological target: T2, consensus OR4E2 (Homo sapiens, UniProt Q8NGC2, A48T/F285L/G158V/H228Q/I116T/I142V/I197M/I47V/L183P/M219T/M25I/M36V/Q234R/R21W/S209T/S40L/S54R/T201S/T49I/T99A/V118M/V214L); conditions: for dose dependence of the response of consensus OR4E2 / response of consensus OR4E2: in the presence of a copper ion
T2 construct: Flag (N); Rho tag (N); expressed in transfected cells; host or cells: HEK293
T2 sequence (Q8NGC2 1-312 R21W/M25I/M36V/S40L/I47V/A48T/T49I/S54R/T99A/I116T/V118M/I142V/G158V/L183P/I197M/T201S/S209T/V214L/M219T/H228Q/Q234R/F285L limits assumed): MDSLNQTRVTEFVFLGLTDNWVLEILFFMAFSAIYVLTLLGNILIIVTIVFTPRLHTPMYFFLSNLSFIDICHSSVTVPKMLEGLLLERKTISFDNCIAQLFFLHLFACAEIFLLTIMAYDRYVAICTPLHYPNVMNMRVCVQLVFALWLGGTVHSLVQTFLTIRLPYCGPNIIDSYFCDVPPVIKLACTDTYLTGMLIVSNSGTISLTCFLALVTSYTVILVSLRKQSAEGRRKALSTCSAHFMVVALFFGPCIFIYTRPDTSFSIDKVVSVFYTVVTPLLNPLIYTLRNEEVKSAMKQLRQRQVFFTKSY
Procedure: as §1, §2

[3] = biological target: T3, consensus OR6B3 (Homo sapiens, UniProt Q8NGW1, A219G/C161Y/C234R/F239S/F305L/G10S/I281L/L135I/L142V/M157V/M215V/P138T/Q89R/R8K/S64G/T78I/V136M/V15L/V166A/V250I)
T3 construct: expressed in transfected cells; host or cells: HEK293
T3 sequence (Q8NGW1 with tags, fused parts or gaps R8K/G10S/V15L/S64G/T78I/Q89R/L135I/V136M/P138T/L142V/M157V/C161Y/V166A/M215V/A219G/C234R/F239S/V250I/I281L/F305L): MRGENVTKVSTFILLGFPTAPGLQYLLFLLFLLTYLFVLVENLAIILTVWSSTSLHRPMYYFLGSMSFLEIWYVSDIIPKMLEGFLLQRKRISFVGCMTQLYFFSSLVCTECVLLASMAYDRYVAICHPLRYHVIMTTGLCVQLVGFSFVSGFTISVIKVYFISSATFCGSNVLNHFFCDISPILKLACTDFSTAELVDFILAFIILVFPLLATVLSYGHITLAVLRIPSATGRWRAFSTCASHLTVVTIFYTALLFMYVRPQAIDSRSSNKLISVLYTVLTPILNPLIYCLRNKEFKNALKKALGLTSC
Procedure: as §1, §2

[4] = biological target: T4, consensus OR11H2 (Homo sapiens, UniProt Q8NH07, A157T/A61V/C266F/D203A/E289A/F213L/F41L/F62C/G242R/I210T/I230L/I288V/I49T/K181M/K238L/L128F/L146H/L162I/M76I/N106T/N25R/P269S/Q137R/Q308R/Q30L/R68Q/S246A/S268G/T131A/T283A/T37K/V63A/Y156C); conditions: in the presence of a copper ion
T4 construct: expressed in transfected cells; host or cells: HEK293
T4 sequence (Q8NH07 12-326 N25R/Q30L/T37K/F41L/I49T/A61V/F62C/V63A/R68Q/M76I/N106T/L128F/T131A/Q137R/L146H/Y156C/A157T/L162I/K181M/D203A/I210T/F213L/I230L/K238L/G242R/S246A/C266F/S268G/P269S/T283A/I288V/E289A/Q308R): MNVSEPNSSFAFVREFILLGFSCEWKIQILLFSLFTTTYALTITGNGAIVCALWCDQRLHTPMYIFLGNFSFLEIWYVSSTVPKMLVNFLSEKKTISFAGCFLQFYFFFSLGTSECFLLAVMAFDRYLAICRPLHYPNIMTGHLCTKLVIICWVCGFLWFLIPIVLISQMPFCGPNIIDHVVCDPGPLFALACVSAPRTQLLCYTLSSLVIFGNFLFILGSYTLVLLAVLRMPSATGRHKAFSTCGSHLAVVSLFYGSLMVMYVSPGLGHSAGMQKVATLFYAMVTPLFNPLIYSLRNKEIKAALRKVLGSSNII
Procedure: as §1, §2

[5] = in the presence of a copper ion

| Structure (SMILES) | response of consensus OR2T29 [1, 5] | EC50 [2] | dose dependence of the response of consensus OR4E2 [2] | response of consensus OR4E2 [2] | EC50 [3] | dose dependence of the response of consensus OR6B3 [3, 5] | response of consensus OR6B3 [3, 5] | response of consensus OR11H2 [4] | EC50 ([2]; consensus OR4E2, 30 μM CuCl2, read-out: EC50(μM) with 30 μM CuCl2) | EC50 [1] | dose dependence of the response of consensus OR2T29 [1, 5] |
| --- | --- | --- | --- | --- | --- | --- | --- | --- | --- | --- | --- |
| CSSC [dimethyl disulfide] | responded | 397 µM | dose-dependent response | responded | 1600 µM | dose-dependent response | responded | responded |  |  |  |
| CSSSC [dimethyl trisulfide] | responded |  | dose-dependent response | responded |  |  | responded | responded | 33 µM |  |  |
| CS [methyl mercaptan] | responded | 250 µM | dose-dependent response | responded |  |  | responded | responded |  | 85 µM | dose-dependent response |

Source: patent US20240279302A1, “OLFACTORY RECEPTOR EXPRESSING METHOD AND RESPONSE MEASUREMENT METHOD” (Kao Corporation, priority 2021, published 2024)
